Format in all cases: cell-based
Assay [1] concerns the target T1, EGFR WT (Homo sapiens, UniProt P00533). As to the kind of experiment: Activity for inhibiting EGFR (Table A), EGFR WT. As to conditions: read-out: EGFR WT, potency code (IC50).
Assay [2] addresses T2, EGFR V3 (Homo sapiens, UniProt P00533, DELINS30-297G).
T2 construct: expressed in transfected cells; host or cells: BaF3 (murine pro-B), retroviral pMXs-IRES-Blasticidin
As to the kind of experiment: Activity for inhibiting EGFR (Table A), EGFR V3 (EGFR-Viii). The settings on record: read-out: EGFR V3, potency code (IC50).

Assay [3] has as its target T3, HER2 S310F (Homo sapiens, UniProt P04626, S310F).
T3 construct: expressed in transfected cells; host or cells: BaF3 (murine pro-B)
Description: Activity for inhibiting HER2 (Table B), HER2 S310F. As to conditions: read-out: HER2 S310F, potency code (IC50). The method, then: (§1) EC50 values were determined with the same application.

Assay [4] addresses T4, HER2 YVMA (Homo sapiens, UniProt P04626, INS775YVMA).
T4 construct: expressed in transfected cells; host or cells: BaF3 (murine pro-B)
As to the kind of experiment: Activity for inhibiting HER2 (Table B), HER2 YVMA. As to conditions: read-out: HER2 YVMA, potency code (IC50). The method, then: as §1

Assay [5] concerns the target T1, EGFR WT. As to the kind of experiment: BaF3 cell proliferation assay, EGFR WT (Table A). The settings on record: potency code, 3 days, CellTiterGlo, read-out: EGFR WT (Activity for Inhibiting EGFR). The procedure:
(§2) Retroviral Production: EGFR mutants were subcloned into pMXs-IRES-Blasticidin (RTV-016, Cell Biolabs, San Diego, Calif.). Retroviral expression vector retrovirus was produced by transient transfection of HEK 293T cells with the retroviral EGFR mutant expression vector pMXs-IRES-Blasticidin (RTV-016, Cell Biolabs), pCMV-Gag-Pol vector and pCMV-VSV-G-Envelope vector. Briefly, HEK 293T/17 cells were plated in 100 mm collagen coated plate (354450, Corning Life Sciences, Tewksbury, Mass.) (4×10^5 per plate) and incubated overnight. The next day, retroviral plasmids (3 μg of EGFR mutant, 1.0 μg of pCMV-Gag-Pol and 0.5 μg pCMV-VSV-G) were mixed in 500 μl of Optimem (31985, Life Technologies). The mixture was incubated at room temperature for 5 min and then added to Optimem containing transfection reagent Lipofectamine (11668, Invitrogen) and incubated for 20 minutes. Mixture was then added dropwise to HEK 293T cells. The next day the medium was replaced with fresh culture medium and retrovirus was harvested @ 24 and 48 hrs.
(§3) Generation of EGFR mutant stable cell lines: BaF3 cells (1.5E5 cells) were infected with 1 ml of viral supernatant supplemented with 8 μg/ml polybrene by centrifuging for 30 min at 1000 rpm. Cells were placed in a 37° C. incubator overnight. Cells were then spun for 5 minutes to pellet the cells. Supernatant was removed and cells re-infected a fresh 1 ml of viral supernatant supplemented with 8 μg/ml polybrene by centrifuging for 30 min at 1000 rpm. Cells were placed in 37° C. incubator overnight. […] After 48 hours cells were selected for retroviral infection in 10 μg/ml Blasticidin for one week. Blasticidin resistant populations were washed twice in phosphate buffered saline before plating in media lacking IL-3 to select for IL-3 independent growth.
as §1

The target in assay [6] is T2, EGFR V3. Description: BaF3 cell proliferation assay, EGFR V3 (Table A). The settings on record: potency code, 3 days, CellTiterGlo, read-out: EGFR V3 (Activity for Inhibiting EGFR). The method, then:
as §2, §3, §1

Assay [7] addresses T3, HER2 S310F. As to the kind of experiment: BaF3 cell proliferation assay, HER2 S310F (Table B). As to conditions: potency code, 3 days, CellTiterGlo, read-out: HER2 S310F (Activity for Inhibiting HER2). In general terms: In ATP-based viability assays light output follows the ATP content of the culture.
The target in assay [8] is T4, HER2 YVMA. Description: BaF3 cell proliferation assay, HER2 YVMA (Table B). The settings on record: potency code, 3 days, CellTiterGlo, read-out: HER2 YVMA (Activity for Inhibiting HER2).

The structures appear in SMILES notation.

T2 sequence (P00533 with tags, fused parts or gaps DELINS30-297G): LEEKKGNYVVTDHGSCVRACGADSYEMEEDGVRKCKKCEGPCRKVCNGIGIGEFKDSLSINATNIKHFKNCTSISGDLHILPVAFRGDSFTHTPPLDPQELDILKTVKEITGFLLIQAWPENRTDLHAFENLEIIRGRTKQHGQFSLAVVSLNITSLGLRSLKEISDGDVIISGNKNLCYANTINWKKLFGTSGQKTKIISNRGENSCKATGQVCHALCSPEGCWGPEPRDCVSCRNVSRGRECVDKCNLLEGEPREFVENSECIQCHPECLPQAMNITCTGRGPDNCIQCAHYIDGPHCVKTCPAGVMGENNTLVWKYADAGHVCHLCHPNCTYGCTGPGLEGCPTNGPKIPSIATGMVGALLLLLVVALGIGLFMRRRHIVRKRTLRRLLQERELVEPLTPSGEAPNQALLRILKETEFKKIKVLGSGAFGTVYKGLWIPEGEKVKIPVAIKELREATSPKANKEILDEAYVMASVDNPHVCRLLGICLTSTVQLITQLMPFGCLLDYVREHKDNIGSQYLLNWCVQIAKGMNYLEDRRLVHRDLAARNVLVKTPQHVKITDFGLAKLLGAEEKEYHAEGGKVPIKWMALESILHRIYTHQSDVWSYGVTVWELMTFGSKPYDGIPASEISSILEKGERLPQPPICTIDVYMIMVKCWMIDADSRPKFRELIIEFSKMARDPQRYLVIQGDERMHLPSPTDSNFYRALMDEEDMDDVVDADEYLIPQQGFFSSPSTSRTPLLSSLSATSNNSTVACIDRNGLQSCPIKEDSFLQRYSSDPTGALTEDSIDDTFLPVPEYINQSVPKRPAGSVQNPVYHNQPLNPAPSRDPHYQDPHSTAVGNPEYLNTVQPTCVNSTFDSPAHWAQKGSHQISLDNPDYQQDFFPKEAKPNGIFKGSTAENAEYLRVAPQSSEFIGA
T1 sequence (P00533 25-1210 N540K): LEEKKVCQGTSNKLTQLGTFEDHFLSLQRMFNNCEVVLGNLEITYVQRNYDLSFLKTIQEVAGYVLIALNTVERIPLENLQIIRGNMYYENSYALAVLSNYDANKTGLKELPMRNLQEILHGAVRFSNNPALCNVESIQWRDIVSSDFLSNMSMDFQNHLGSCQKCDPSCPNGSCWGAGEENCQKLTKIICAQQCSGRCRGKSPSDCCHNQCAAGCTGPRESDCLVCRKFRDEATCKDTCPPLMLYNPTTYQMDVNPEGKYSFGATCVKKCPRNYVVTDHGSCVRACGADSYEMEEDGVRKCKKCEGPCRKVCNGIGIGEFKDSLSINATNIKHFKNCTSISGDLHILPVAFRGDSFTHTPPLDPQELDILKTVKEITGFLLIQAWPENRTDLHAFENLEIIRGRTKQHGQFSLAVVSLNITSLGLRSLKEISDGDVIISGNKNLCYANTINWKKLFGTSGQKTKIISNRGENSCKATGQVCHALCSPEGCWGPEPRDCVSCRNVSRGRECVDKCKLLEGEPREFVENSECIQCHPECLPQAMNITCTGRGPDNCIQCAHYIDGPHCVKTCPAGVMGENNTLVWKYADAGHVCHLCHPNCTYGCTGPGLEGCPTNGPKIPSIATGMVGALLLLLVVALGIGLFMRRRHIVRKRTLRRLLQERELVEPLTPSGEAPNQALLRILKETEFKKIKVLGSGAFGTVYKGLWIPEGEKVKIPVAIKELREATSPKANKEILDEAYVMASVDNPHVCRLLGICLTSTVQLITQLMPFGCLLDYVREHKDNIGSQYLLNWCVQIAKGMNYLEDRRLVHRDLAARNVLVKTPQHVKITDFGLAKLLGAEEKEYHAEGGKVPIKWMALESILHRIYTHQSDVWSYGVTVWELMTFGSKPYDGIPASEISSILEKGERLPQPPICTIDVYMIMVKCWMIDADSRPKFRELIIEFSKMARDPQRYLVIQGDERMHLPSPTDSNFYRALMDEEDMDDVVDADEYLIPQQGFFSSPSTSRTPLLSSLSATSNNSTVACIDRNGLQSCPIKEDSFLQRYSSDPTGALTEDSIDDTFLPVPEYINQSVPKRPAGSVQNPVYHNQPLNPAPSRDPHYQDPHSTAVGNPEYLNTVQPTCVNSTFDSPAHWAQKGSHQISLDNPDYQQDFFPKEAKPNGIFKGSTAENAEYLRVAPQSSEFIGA
T4 sequence (P04626 with tags, fused parts or gaps INS775YVMA): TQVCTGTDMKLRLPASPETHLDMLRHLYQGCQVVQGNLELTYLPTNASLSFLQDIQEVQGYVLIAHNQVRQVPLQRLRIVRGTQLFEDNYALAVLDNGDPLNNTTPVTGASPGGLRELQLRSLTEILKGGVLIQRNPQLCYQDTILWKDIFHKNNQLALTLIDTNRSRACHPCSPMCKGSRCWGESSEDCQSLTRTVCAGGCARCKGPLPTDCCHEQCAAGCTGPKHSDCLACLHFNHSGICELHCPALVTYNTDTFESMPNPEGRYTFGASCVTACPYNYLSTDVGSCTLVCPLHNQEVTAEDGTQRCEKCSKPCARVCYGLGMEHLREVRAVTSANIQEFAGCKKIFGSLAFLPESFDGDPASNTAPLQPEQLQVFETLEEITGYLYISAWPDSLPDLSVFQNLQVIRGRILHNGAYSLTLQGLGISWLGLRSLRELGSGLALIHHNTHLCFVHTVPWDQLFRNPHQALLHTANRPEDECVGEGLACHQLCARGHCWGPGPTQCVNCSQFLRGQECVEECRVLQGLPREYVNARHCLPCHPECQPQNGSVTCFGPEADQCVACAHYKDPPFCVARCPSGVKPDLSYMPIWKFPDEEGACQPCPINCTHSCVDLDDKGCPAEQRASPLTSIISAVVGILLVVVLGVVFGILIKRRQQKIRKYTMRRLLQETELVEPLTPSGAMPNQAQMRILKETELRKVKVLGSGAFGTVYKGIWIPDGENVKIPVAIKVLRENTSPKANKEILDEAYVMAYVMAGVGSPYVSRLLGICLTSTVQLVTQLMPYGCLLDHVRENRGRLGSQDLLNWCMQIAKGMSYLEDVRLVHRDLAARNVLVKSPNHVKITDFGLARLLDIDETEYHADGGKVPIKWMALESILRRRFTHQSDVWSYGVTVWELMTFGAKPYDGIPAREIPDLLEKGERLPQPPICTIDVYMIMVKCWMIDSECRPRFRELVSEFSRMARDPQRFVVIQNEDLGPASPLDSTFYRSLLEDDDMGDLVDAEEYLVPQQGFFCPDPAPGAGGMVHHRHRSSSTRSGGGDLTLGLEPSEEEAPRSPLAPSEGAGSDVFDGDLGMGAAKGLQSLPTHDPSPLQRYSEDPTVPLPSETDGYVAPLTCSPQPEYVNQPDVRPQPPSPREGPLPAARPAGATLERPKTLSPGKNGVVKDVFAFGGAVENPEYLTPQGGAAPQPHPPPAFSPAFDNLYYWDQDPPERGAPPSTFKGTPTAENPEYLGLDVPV
T3 sequence (P04626 23-1255 S310F): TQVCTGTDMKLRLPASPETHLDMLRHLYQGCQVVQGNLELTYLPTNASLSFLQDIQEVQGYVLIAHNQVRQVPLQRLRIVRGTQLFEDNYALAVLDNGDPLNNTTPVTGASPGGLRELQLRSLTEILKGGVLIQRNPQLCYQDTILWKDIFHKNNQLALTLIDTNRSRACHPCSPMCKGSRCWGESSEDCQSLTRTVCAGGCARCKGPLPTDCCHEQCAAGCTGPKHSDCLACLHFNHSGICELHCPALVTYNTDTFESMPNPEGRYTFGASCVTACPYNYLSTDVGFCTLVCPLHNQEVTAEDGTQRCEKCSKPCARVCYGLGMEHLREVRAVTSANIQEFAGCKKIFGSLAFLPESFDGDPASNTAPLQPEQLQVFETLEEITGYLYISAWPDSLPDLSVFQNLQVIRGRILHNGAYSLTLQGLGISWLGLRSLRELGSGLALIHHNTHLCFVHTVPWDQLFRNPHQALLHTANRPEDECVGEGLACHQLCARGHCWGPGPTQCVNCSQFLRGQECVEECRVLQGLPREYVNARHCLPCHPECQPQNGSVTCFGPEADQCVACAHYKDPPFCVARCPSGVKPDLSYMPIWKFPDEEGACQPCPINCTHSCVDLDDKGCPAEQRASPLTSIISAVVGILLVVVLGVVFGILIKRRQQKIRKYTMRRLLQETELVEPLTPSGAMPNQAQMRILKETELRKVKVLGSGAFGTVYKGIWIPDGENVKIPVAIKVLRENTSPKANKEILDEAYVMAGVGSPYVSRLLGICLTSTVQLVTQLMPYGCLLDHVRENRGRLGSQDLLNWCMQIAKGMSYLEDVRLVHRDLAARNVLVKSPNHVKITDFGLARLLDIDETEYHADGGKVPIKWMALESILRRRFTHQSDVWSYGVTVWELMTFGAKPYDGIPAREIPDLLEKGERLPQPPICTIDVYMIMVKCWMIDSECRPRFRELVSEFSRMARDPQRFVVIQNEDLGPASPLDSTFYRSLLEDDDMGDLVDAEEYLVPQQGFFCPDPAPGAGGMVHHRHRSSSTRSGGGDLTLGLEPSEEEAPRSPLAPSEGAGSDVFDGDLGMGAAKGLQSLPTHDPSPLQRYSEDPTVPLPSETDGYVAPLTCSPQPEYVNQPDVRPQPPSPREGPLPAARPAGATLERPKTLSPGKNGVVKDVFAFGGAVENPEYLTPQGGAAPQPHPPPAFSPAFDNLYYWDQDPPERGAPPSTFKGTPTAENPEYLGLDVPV

For the compound `C=CC(=O)Nc1cc2c(Nc3ccc(OCc4ccccn4)c(Cl)c3)ncnc2cc1O[C@H]1CCCN(C)CC1` [compound 99, N-(4-((3-chloro-4-(pyridin-2-ylmethoxy)phenyl)amino)-7-((1-methylazepan-4-yl)oxy)quinazolin-6-yl)acrylamide], the IC50 in assay [1] lay in the range of 200 to 300 nM; in assay [2], 20 to 30 nM; in assay [3], 30 to 50 nM; in assay [4], 200 to 300 nM; in assay [5], 200 to 300 nM; in assay [6] it was 20 to 30 nM. Also, the IC50 in assay [7] lay within 30 to 50 nM; in assay [8], 200 to 300 nM.

As for `C=CC(=O)Nc1cc2c(Nc3cc(C)c(OCc4ccccn4)cc3F)ncnc2cc1OCCN1CCOCC1` [compound 100, N-(4-((2-fluoro-5-methyl-4-(pyridin-2-ylmethoxy)phenyl)amino)-7-(2-morpholinoethoxy)quinazolin-6-yl)acrylamide], the IC50 lay in the range of 300 to 500 nM in assay [1]; 30 to 50 nM in assay [2]; 50 to 100 nM in assay [3]; 300 to 500 nM in assay [4]; 300 to 500 nM in assay [5]; 30 to 50 nM in assay [6]. In addition, the IC50 is 50 to 100 nM in assay [7] and 300 to 500 nM in assay [8].

In the case of `C=CC(=O)Nc1cc2c(Nc3ccc(OCc4ccccn4)c(Cl)c3)ncnc2cc1OC[C@H]1CCN(C)C1` [compound 101, N-(4-((3-chloro-4-(pyridin-2-ylmethoxy)phenyl)amino)-7-((1-methylpyrrolidin-3-yl)methoxy)quinazolin-6-yl)acrylamide], the IC50 in assay [1] was 100 to 200 nM; in assay [2], 10 to 20 nM; in assay [3] it was 10 to 20 nM; in assay [4], 30 to 50 nM; in assay [5] it was 100 to 200 nM; in assay [6], 10 to 20 nM. Further, the values for the IC50 in assay [7] and in assay [8] were 10 to 20 nM and 30 to 50 nM, respectively.

Take `C=CC(=O)Nc1cc2c(Nc3ccc(OCc4ccccn4)c(Cl)c3)ncnc2cc1OC[C@H]1C[C@@H]2CN(C)C[C@@H]2C1` [compound 103, N-(4-((3-chloro-4-(pyridin-2-ylmethoxy)phenyl)amino)-7-(((3aR,5s,6aS)-2-methyloctahydrocyclopenta[c]pyrrol-5-yl)methoxy)quinazolin-6-yl)acrylamide]: the IC50 in assay [1] lay within 200 to 300 nM; in assay [2], 30 to 50 nM; in assay [3], 10 to 20 nM; in assay [4] it was 50 to 100 nM; in assay [5], 200 to 300 nM; in assay [6] it was 30 to 50 nM. Moreover, the results for the IC50 in assay [7] and in assay [8] were 10 to 20 nM and 50 to 100 nM, respectively.

Regarding `C=CC(=O)Nc1cc2c(Nc3ccc(Oc4ccc(C)nc4)c(C)c3)ncnc2cc1C#C[C@@H]1[C@H]2CN(C)C[C@@H]12` [compound 104, N-(7-(((1R,5S,6s)-3-methyl-3-azabicyclo[3.1.0]hexan-6-yl)ethynyl)-4-((3-methyl-4-((6-methylpyridin-3-yl)oxy)phenyl)amino)quinazolin-6-yl)acrylamide], the IC50 is 20 to 30 nM in assay [1]; 30 to 50 nM in assay [2]; 30 to 50 nM in assay [3]; 30 to 50 nM in assay [4]; 20 to 30 nM in assay [5]; 30 to 50 nM in assay [6]. The IC50 in assay [7] and in assay [8] was 30 to 50 nM each time.

With `C=CC(=O)Nc1cc2c(Nc3ccc(OCc4ccccn4)c(Cl)c3)ncnc2cc1C#CC1[C@H]2CNC[C@@H]12` (stereo partly drawn) [compound 105, N-(7-((1R,5S,6s)-3-azabicyclo[3.1.0]hexan-6-ylethynyl)-4-((3-chloro-4-(pyridin-2-ylmethoxy)phenyl)amino)quinazolin-6-yl)acrylamide], the IC50 was in the range of 500 to 1000 nM in assay [1]; 50 to 100 nM in assay [2]; 30 to 50 nM in assay [3]; 100 to 200 nM in assay [4]; 500 to 1000 nM in assay [5]; 50 to 100 nM in assay [6]. Further, the values for the IC50 in assay [7] and in assay [8] were 30 to 50 nM and 100 to 200 nM, respectively.

Take `C=CC(=O)Nc1cc2c(Nc3ccc(Oc4ccccc4)cc3)ncnc2cc1C#C[C@@H]1[C@H]2CN(C)C[C@@H]12` [compound 106, N-(7-(((1R,5S,6s)-3-methyl-3-azabicyclo[3.1.0]hexan-6-yl)ethynyl)-4-((4-phenoxyphenyl)amino)quinazolin-6-yl)acrylamide]: the IC50 in assay [1] fell in the range of 100 to 200 nM; in assay [2], 30 to 50 nM; in assay [3] it was 30 to 50 nM; in assay [4], 100 to 200 nM; in assay [5], 100 to 200 nM; in assay [6], 30 to 50 nM. For the same compound, the IC50 is 30 to 50 nM in assay [7] and 100 to 200 nM in assay [8].

As for `CC#CC(=O)Nc1cc2c(Nc3ccc(OCc4ccccn4)c(Cl)c3)ncnc2cc1C#CC1[C@H]2CN(C)C[C@@H]12` (stereo partly drawn) [compound 107, N-(4-((3-chloro-4-(pyridin-2-ylmethoxy)phenyl)amino)-7-(((1R,5S,6s)-3-methyl-3-azabicyclo[3.1.0]hexan-6-yl)ethynyl)quinazolin-6-yl)but-2-ynamide], the IC50 in assay [1] was in the range of 200 to 300 nM; in assay [2] it was 50 to 100 nM; in assay [3] it was 10 to 20 nM; in assay [4] it was 30 to 50 nM; in assay [5], 200 to 300 nM; in assay [6] it was 50 to 100 nM. In addition, the IC50 in assay [7] is 10 to 20 nM; in assay [8], 30 to 50 nM.

`CC#CC(=O)Nc1cc2c(Nc3ccc(Oc4ccccc4)cc3)ncnc2cc1C#C[C@@H]1[C@H]2CN(C)C[C@@H]12` [compound 108, N-(7-(((1R,5S,6s)-3-methyl-3-azabicyclo[3.1.0]hexan-6-yl)ethynyl)-4-((4-phenoxyphenyl)amino)quinazolin-6-yl)but-2-ynamide]: the IC50 in assay [1] lay in the range of 500 to 1000 nM; in assay [2], 100 to 200 nM; in assay [3], 50 to 100 nM; in assay [4], 500 to 1000 nM; in assay [5] it was 500 to 1000 nM; in assay [6] it was 100 to 200 nM. Moreover, the IC50 was in the range of 50 to 100 nM in assay [7] and 500 to 1000 nM in assay [8].

With `C=C(F)C(=O)Nc1cc2c(Nc3ccc(OCc4ccccn4)c(Cl)c3)ncnc2cc1OCCN1CCOCC1` [compound 109, N-(4-((3-chloro-4-(pyridin-2-ylmethoxy)phenyl)amino)-7-(2-morpholinoethoxy)quinazolin-6-yl)-2-fluoroacrylamide], the IC50 in assay [1] fell in the range of 30 to 50 nM; in assay [2], 10 to 20 nM; in assay [3] it was 10 to 20 nM; in assay [4] it was 50 to 100 nM; in assay [5], 30 to 50 nM; in assay [6] it was 10 to 20 nM. Moreover, the figures for the IC50 in assay [7] and in assay [8] were 10 to 20 nM and 50 to 100 nM, respectively.

Take `C=CC(=O)Nc1cc2c(Nc3ccc(OCc4ccccn4)c(Cl)c3)ncnc2cc1OC1CCN(C)CC1` [compound 110, N-(4-((3-chloro-4-(pyridin-2-ylmethoxy)phenyl)amino)-7-((1-methylpiperidin-4-yl)oxy)quinazolin-6-yl)acrylamide]: the IC50 in assay [1] is 200 to 300 nM; in assay [2] it was 20 to 30 nM; in assay [3], 30 to 50 nM; in assay [4] it was 200 to 300 nM; in assay [5], 200 to 300 nM; in assay [6], 20 to 30 nM. Moreover, the IC50 in assay [7] lay in the range of 30 to 50 nM; in assay [8], 200 to 300 nM.

In the case of `C=CC(=O)Nc1cc2c(Nc3ccc(OCc4ccccn4)c(Cl)c3)ncnc2cc1OCCN1CCC(O)CC1` [compound 111, N-(4-((3-chloro-4-(pyridin-2-ylmethoxy)phenyl)amino)-7-(2-(4-hydroxypiperidin-1-yl)ethoxy)quinazolin-6-yl)acrylamide], the IC50 in assay [1] was in the range of 300 to 500 nM; in assay [2] it was 30 to 50 nM; in assay [3], 30 to 50 nM; in assay [4], 100 to 200 nM; in assay [5], 300 to 500 nM; in assay [6], 30 to 50 nM. Further, the IC50 was 30 to 50 nM in assay [7] and 100 to 200 nM in assay [8].

The values are drawn from patent US11034672B1, “Tyrosine kinase inhibitor compositions, methods of making and methods of use” (Black Diamond Therapeutics, Inc., priority 2018, dated 2021).
